Assay [1] addresses Pancreatic elastase (Sus scrofa) (UniProt P08419+P00772). Put plainly: Inhibition constant for uncompetitive inhibition of Suc-AAPA and Pancreatic elastase. It counts as protein assay.
For assay [2], the target named is T1, Chymotrypsin-like elastase family member 2A (Sus scrofa) (UniProt P08419).
T1 sequence (whole entry): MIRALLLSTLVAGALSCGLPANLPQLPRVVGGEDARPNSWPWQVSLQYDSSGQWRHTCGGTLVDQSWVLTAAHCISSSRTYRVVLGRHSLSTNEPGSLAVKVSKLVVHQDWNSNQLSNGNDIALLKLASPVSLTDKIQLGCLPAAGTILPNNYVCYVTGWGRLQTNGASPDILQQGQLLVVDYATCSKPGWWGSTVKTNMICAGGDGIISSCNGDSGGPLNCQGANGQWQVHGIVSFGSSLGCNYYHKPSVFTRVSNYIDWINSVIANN
Description: Peptide was tested for inhibition constant for competitive inhibition using Suc-AAPA-pNa and Pancreatic elastase

Assay [3] has as its target T2, Neutrophil elastase (Homo sapiens, UniProt P08246).
T2 sequence (P08246 whole entry): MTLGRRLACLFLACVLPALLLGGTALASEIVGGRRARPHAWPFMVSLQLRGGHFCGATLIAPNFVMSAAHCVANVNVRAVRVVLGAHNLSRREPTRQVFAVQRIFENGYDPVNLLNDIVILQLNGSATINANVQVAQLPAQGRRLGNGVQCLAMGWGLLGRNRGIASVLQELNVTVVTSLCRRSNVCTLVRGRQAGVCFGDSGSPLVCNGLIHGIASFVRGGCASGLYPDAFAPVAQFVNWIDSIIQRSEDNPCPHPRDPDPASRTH
Put plainly: Competitive inhibition constant against Human neutrophil elastase using the reporter substrate MeO-AAPV-pNa.

For assay [4], the target named is T3, Chymotrypsinogen A (Bos taurus, UniProt P00766). Put plainly: Competitive inhibition constant against Chymotrypsinogen using the reporter substrate Suc-AAPA-pNa.
In assay [5] the target is T4, Serine protease 1 (Homo sapiens, UniProt P07477).
T4 sequence (P07477 whole entry): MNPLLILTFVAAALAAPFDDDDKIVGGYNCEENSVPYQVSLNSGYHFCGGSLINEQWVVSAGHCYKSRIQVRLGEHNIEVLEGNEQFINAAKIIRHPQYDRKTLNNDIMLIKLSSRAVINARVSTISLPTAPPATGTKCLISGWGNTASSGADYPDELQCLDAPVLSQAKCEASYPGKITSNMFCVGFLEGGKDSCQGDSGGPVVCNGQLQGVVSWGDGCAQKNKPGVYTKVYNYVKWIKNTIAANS
The target in assay [6] is T2, Neutrophil elastase. Put plainly: Competitive inhibition constant against Human neutrophil elastase using the reporter substrate MeO-AAPV-pNa; NI means no inhibition.
Assay [7] concerns the target T3, Chymotrypsinogen A. Put plainly: Competitive inhibition constant against Chymotrypsinogen using the reporter substrate Suc-AAPA-pNa; No inhibition.
Assay [8] has as its target T5, Chymotrypsin-like elastase family member 2A (Sus scrofa, UniProt P08419).
T5 sequence (P08419 whole entry): T1 sequence (whole entry)
Put plainly: Peptide was tested for inhibition constant for uncompetitive inhibition using Suc-AAPA and Pancreatic elastase.

Assay [9] has as its target T4, Serine protease 1. Put plainly: Competitive inhibition constant against trypsin using the reporter substrate Ac-R-pNa.

Where a SMILES comes first, the peptide text is derived from it.

Sequence of Pancreatic elastase (Sus scrofa) (P00772 whole entry, looked up, one chain of several): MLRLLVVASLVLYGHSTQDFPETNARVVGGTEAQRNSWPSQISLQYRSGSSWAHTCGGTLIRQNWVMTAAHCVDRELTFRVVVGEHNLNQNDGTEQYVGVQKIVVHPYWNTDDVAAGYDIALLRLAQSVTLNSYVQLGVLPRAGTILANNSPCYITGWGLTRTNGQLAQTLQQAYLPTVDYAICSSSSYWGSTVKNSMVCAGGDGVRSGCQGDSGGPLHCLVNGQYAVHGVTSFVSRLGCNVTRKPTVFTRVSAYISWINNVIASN

One may read the Ki as a dissociation constant, usually derived from enzyme kinetics or from competition with a known ligand. Lower therefore signals a stronger hold on the target. In the case of `CC[C@@H](C)[C@@H](NC(=O)[C@@H](C)NC(=O)[C@@H](CCC(=O)O)NC(=O)[C@@H](CC(C)C)NC(=O)[C@@H](Cc1ccccc1)NC(=O)[C@H](N)CCSC)C(=O)N1CCC[C@H]1C(=O)N[C@@H](CCSC)C(=O)O`, the Ki' was 440 µM in [1] and “No inhibition” in assay [2]. The Ki at Neutrophil elastase [3] came out at 270 µM.

For the compound `CC[C@H](C)[C@H](NC(=O)[C@H](C)NC(=O)[C@H](CCC(=O)O)NC(=O)[C@H](CC(C)C)NC(=O)[C@H](Cc1ccccc1)NC(=O)[C@@H](N)CCSC)C(=O)N1CCC[C@H]1C(=O)N[C@@H](CCSC)C(=O)N[C@@H](CO)C(=O)O`, the Ki is 3100 µM on Chymotrypsinogen A [4] and “Not Active” on Serine protease 1 [5].

Regarding `CC[C@@H](C)[C@@H](NC(=O)[C@@H](CC)NC(=O)[C@@H](CCC(=O)O)NC(=O)[C@@H](CC(C)C)NC(=O)[C@@H](Cc1ccccc1)NC(=O)[C@H](N)CCSC)C(=O)N1CCC[C@H]1C(=O)O`, in assay [1], the Ki' stood at 220 µM.

For `CC[C@@H](C)[C@@H](NC(=O)[C@@H](C)NC(=O)[C@@H](CCC(=O)O)NC(=O)[C@@H](CC(C)C)NC(C)=O)C(=O)N1CCC[C@H]1C(=O)N[C@@H](CCSC)C(=O)O`, the Ki' in [1] worked out at 890 µM.

Compound `CC(C)C[C@H](NC(=O)[C@@H](N)Cc1ccccc1)C(=O)N[C@@H](CCC(=O)O)C(=O)O` (H-Phe-Leu-Glu-OH) showed a Ki' in [1] of 1400 µM.

The compound `CSCC[C@H](N)C(=O)N[C@@H](Cc1ccccc1)C(=O)N[C@@H](CC(C)C)C(=O)N[C@@H](C)C(=O)O` (H-MFLA-OH) had a Ki' in [1] of 890 µM.

Compound `CC[C@@H](C)[C@@H](NC(=O)[C@@H](C)NC(=O)[C@@H](CCC(=O)O)NC(=O)[C@@H](CC(C)C)NC(=O)[C@@H](Cc1ccccc1)NC(=O)[C@H](N)CCSC)C(=O)N1CCC[C@H]1C(=O)N[C@H](CCCCN)C(=O)O` returned a Ki' in assay [1] of 640 µM. Moreover, the Ki entry on Neutrophil elastase [6] is “Not Active”.

In turn, H-MFLEAIPMSIPPE-OH registered a Ki on Chymotrypsinogen A [4] of 240 µM.

In turn, `CSCC[C@@H](N)C(=O)N[C@H](Cc1ccccc1)C(=O)N[C@H](CC(C)C)C(=O)N[C@H](CCC(=O)O)C(=O)O` displayed a Ki' in assay [1] of 370 µM. The Ki entry at Neutrophil elastase [6], on Serine protease 1 [5] and at Chymotrypsinogen A [7] was “Not Active” in each case.

For the compound `CC[C@H](C)[C@H](NC(=O)[C@H](C)NC(=O)[C@H](CCC(=O)O)NC(=O)[C@H](CC(C)C)NC(=O)[C@H](Cc1ccccc1)NC(=O)[C@@H](N)CCSC)C(=O)N1CCC[C@H]1C(=O)N[C@@H](CCSC)C(=O)O`, the inhibition constant (Ki) at Chymotrypsinogen A [4] was 2300 µM; at Serine protease 1 [5], “Not Active”; in assay [8], “No inhibition”.

Consider `CC[C@@H](C)[C@@H](NC(=O)[C@@H](C)NC(=O)[C@@H](CCC(=O)O)NC(=O)[C@@H](CC(C)C)NC(=O)[C@@H](Cc1ccccc1)NC(=O)[C@H](N)CCSC)C(=O)N1CCC[C@H]1C(=O)N[C@@H](CCSC)C(=O)N[C@@H](CO)C(=O)O`, for which the Ki' in [1] is 1200 µM. This compound had a Ki on Neutrophil elastase [3] of 190 µM.

Regarding `CC[C@H](C)[C@H](NC(=O)[C@H](CO)NC(=O)[C@H](CCSC)NC(=O)[C@@H]1CCCN1C(=O)[C@@H](NC(=O)[C@H](C)NC(=O)[C@H](CCC(=O)O)NC(=O)[C@H](CC(C)C)NC(=O)[C@H](Cc1ccccc1)NC(=O)[C@@H](N)CCSC)[C@@H](C)CC)C(=O)O`, the figures for the Ki on Chymotrypsinogen A [4] and at Serine protease 1 [5] were 160 µM and “Not Active”, respectively.

As for `CC[C@H](C)[C@H](NC(=O)[C@H](C)NC(=O)[C@H](CCC(=O)O)NC(=O)[C@H](CC(C)C)NC(=O)[C@H](Cc1ccccc1)NC(=O)[C@@H](N)CCSC)C(=O)N1CCC[C@H]1C(=O)N[C@@H](CCCCN)C(=O)O`, the Ki was 540 µM on Serine protease 1 [9] and “Not Active” at Chymotrypsinogen A [7].

For the compound `CC[C@@H](C)[C@H](NC(=O)[C@H](CO)NC(=O)[C@H](CCSC)NC(=O)[C@@H]1CCCN1C(=O)[C@H](NC(=O)[C@@H](C)NC(=O)[C@@H](CCC(=O)O)NC(=O)[C@@H](CC(C)C)NC(=O)[C@@H](Cc1ccccc1)NC(=O)[C@H](N)CCSC)[C@H](C)CC)C(=O)O`, the Ki' in assay [1] was 340 µM. For the same compound, the affinity at Neutrophil elastase [3], expressed as Ki, was 27 µM.

The compound `CC[C@H](C)[C@H](NC(=O)[C@H](C)NC(=O)[C@H](CCC(=O)O)NC(=O)[C@H](CC(C)C)NC(=O)[C@@H](N)Cc1ccccc1)C(=O)N1CCC[C@@H]1C(=O)N[C@H](CCSC)C(=O)O` returned a Ki' in assay [1] of 530 µM.
